Data: EPA's ToxValDB 9.5
In brackets after ≈: the same amount, converted by molar mass. Several values for one entry are separate records, joined by “and”; a condition that tells them apart may be missing. Equal entries are not always repeated.

Legend:
Neovison vison = conditions: reproduction developmental; oral; diet; F; reproduction
Anatidae = conditions: short-term; duration: 17 days; oral; feed; M; histopathology: nonneoplastic
Meleagris sp. = conditions: short-term; duration: 3 weeks; oral; feed; F; body weight
Gallus gallus = conditions: for NOAEL: oral, diet, body weight
Canidae = conditions: chronic, oral
Colinus virginianus = conditions: acute, oral, mortality
Phasianus sp. = conditions: acute; oral; unspecified; mortality
Pimephales promelas = conditions: chronic/long-term
Daphnia magna = conditions: chronic/long-term; duration: 21 days; reproduction
Lepomis macrochirus = conditions: acute; duration: 96 hours; mortality
Bibionidae = conditions: chronic/long-term
Ovis sp. = conditions: for LD50: acute, mortality
Sus scrofa = conditions: Not specified
Danio rerio = conditions: acute; duration: 96 hours; mortality
Cyprinodon variegatus = conditions: chronic/long-term; duration: 90 days; development
Neomysis kadiakensis = conditions: chronic/long-term; duration: 28 days; other
Mus musculus = conditions: chronic; duration: 104 weeks; clinical signs
Pontoscolex corethrurus = conditions: reproductive; duration: 56 days; mortality
Apis mellifera = conditions: acute, mortality
Folsomia candida = conditions: chronic/long-term; duration: 28 days; reproduction
Hypoaspis aculeifer = conditions: chronic/long-term; duration: 14 days; mortality

Compound `O=c1cc(O)c1=O` [Moniliformin] has an NOAEL (Rattus norvegicus; short-term, duration: 28 days, oral, gavage, M, Sprague-Dawley, clinical signs) of 6 mg/kg-day, an NOAEL (Neovison vison) of 0.92 mg/kg-day and an NOAEL (Anatidae) of 2.3 mg/kg-day. It also gave an NOAEL (Meleagris sp.) of 1.6 mg/kg-day, an NOAEL (Gallus gallus; chronic, duration: 14 months) of 3.8 mg/kg-day and an NOAEL (Gallus gallus; subchronic, duration: 7 weeks) of 1.4 mg/kg-day.

Compound `C[C@@H]1C/C=C/C=C/C=C/C=C/[C@H](O[C@@H]2O[C@H](C)[C@@H](O)[C@H](N)[C@@H]2O)C[C@@H]2O[C@](O)(C[C@@H](O)C[C@H]3O[C@@H]3/C=C/C(=O)O1)C[C@H](O)[C@H]2C(=O)O` [Natamycin] has an NOAEL (Rattus norvegicus; chronic, duration: 2 years, oral, diet, growth) of 22.4 mg/kg-day and an NOAEL (Canidae; duration: 2 years, diet, M/F, Beagle, body weight) of 6.25 mg/kg-day.

`CNC(=O)CSP(=O)(OC)OC` [Omethoate] gave an LD50 (Colinus virginianus) of 9.9 mg/kg, an LC50 (Rattus norvegicus; acute, duration: 4 hours, inhalation, mortality) of 0.287 µg/mL (≈ 1.35 µM) and an NOAEL (Rattus norvegicus; acute, oral, clinical signs) of 0.2 mg/kg-day. The LOAEL (Rattus norvegicus; chronic, duration: 2 years, clinical chemistry) was 0.04 mg/kg-day, the NOAEL (Rattus norvegicus; reproduction developmental, clinical chemistry) was 0.03 mg/kg-day and the NOAEL (Canidae; duration: 12 months, gavage, Dog Other, clinical chemistry) was 0.025 mg/kg-day. It also gave an LD50 (Phasianus sp.) of 29 mg/kg.

For `CCOc1cc(Oc2ccc(C(F)(F)F)cc2Cl)ccc1[N+](=O)[O-]` [Oxyfluorfen], the NOEC (Landoltia sp.; acute, duration: 14 days, frond number) was 0.00195 mg/L, the NOEC (Pimephales promelas; duration: 34 days, reproduction) was 38 µg/L and the NOEC (Daphnia magna) was 13 µg/L. The LC50 (Lepomis macrochirus) was 0.21 µg/mL (≈ 0.581 µM) and the NOEC (Bibionidae; duration: 28 days, development) was 80 µg/L.

`C=C(C)[C@@H]1NC(=O)[C@@H](NC)[C@@H](O)c2cc(Cl)c(O)c(c2)O[C@](C)(CC)[C@@H](C(=O)N2CC=C[C@H]2C(=O)N/C(C(=O)N/C(=C/C(=O)O)C(=O)O)=C(\C)CC)NC1=O` [Phomopsin] was tested, and the LD50 (Ovis sp.; injection, subcutaneous) was at least 0.017 mg/kg, the LD50 (Ovis sp.; oral) was 1.34 mg/kg and the LOAEL (Ovis sp.; subchronic, clinical chemistry) was 12.5 mg/kg-day. For the same compound, the LD50 (Sus scrofa; acute, mortality) was 0.848 mg/kg.

Work on `P` [Phosphine] yielded an NOAEL (Rattus norvegicus; chronic, duration: 2 years, inhalation) of 1.1 mg/kg-day, an NOAEL (Rattus norvegicus; reproduction developmental, inhalation, mortality) of 1.9 mg/kg-day and an NOAEL (Rattus norvegicus; subchronic, duration: 90 days, inhalation, mortality) of 1.1 mg/kg-day. The LC50 (Danio rerio) was 0.048 µg/mL (≈ 1.41 µM).

`Cc1nc(N(C)C)nc(OC(=O)N(C)C)c1C` [Pirimicarb] gave an LD50 (Colinus virginianus; duration: 2 hours, gavage, M/F) of 20 mg/kg and an LD50 (Colinus virginianus; diet) of 370 mg/kg.

With `[I-].[K+]` [Potassium iodide] the LEL (Sus scrofa; repeat dose other, no effects) was 8 mg/kg-day and the LEL (Gallus gallus; repeat dose other, no effects) was 5 mg/kg-day.

With `CC(C)(C)c1ccc(CSc2cnn(C(C)(C)C)c(=O)c2Cl)cc1` [Pyridaben] the LD50 (Colinus virginianus) was over 2250 mg/kg-day, the NOEC (Anas platyrhynchos; chronic/long-term) was 10 mg/kg-day and the NOEC (Anas platyrhynchos; short-term, oral, feed, mortality) was 659 mg/kg-day. It also gave an NOEC (Rattus norvegicus; chronic, M, body weight) of 3.2 mg/kg-day.

`Fc1ccc(Oc2ccnc3cc(Cl)cc(Cl)c23)cc1` [Quinoxyfen] showed an NOEC (Landoltia sp.; chronic/long-term, duration: 14 days) of 0.149 mg/L, an NOEC (Cyprinodon variegatus) of 0.00409 mg/L and an NOEC (Neomysis kadiakensis) of 0.00152 mg/L. It also gave an NOEC (Bibionidae; duration: 27 days) of 128 µg/L.

Work on `Oc1cccc(O)c1` [Resorcinol] yielded an NOAEL (Mus musculus) of 36 mg/kg-day and an NOAEL (Rattus norvegicus; chronic, duration: 103 weeks, oral, gavage, Fischer 344, neurology) of 36 mg/kg-day.

In the case of `[Al+3].[Na+].[O-][Si]([O-])([O-])[O-]` [Sodium aluminium silicate], the LC50 (Danio rerio) is reported as over 100 µg/mL, the NOEC (Pimephales promelas; duration: 30 days, growth) is reported as 86700 µg/L and the NOEC (Daphnia magna) is reported as 10000 µg/L.

In the case of `O=C1[N-]S(=O)(=O)c2ccccc21.[Na+]` [Sodium saccharin], the NOEC (Pontoscolex corethrurus) is reported as 100 mg/kg.

For `CN1COCN(Cc2cnc(Cl)s2)/C1=N/[N+](=O)[O-]` [Thiamethoxam], the LD50 (Apis mellifera; dermal) was 0.024 µg/piece (2×) and 0.0121 µg/piece, the LD50 (Apis mellifera; duration: 48 hours, oral, unspecified) was 0.00631 µg/piece and the LD50 (Apis mellifera; duration: 72 hours, dermal) was 5.55 g/ha. The LD50 (Apis mellifera; oral, unspecified) was 0.005 µg/piece (3×) and 0.00936 µg/piece.

`C[C@H]1CCCC(=O)CCC/C=C/c2cc(O)cc(O)c2C(=O)O1` [Zearalenone] was tested, and the NOEL (Sus scrofa; reproduction developmental, F, morphology) was 0.01 mg/kg-day.

With `C=C(C)[C@H]1CC=C(C)C(=O)C1` [d-Carvone] the LD50 (Rattus norvegicus; acute, oral, mortality) was over 2000 mg/kg-day, the NOAEL (Rattus norvegicus; reproduction developmental, organ weight) was 30 mg/kg-day and the NOEC (Folsomia candida) was 25 mg/kg. The LC50 (Danio rerio) was 56 µg/mL (≈ 373 µM), the NOEC (Landoltia sp.; acute, duration: 192 hours, frond number) was 4.6 mg/L and the NOEC (Hypoaspis aculeifer) was at least 200 mg/kg.

With `Clc1ccc(C(c2ccc(Cl)cc2)C(Cl)Cl)cc1` [p,p'-DDD] the NOAEL (Anas platyrhynchos; not reported, other) was 0.06 mg/kg-day.

`ClC(Cl)=C(c1ccc(Cl)cc1)c1ccc(Cl)cc1` [p,p'-DDE] gave an LOAEL (Anas platyrhynchos; reproductive, development) of 0.6 mg/kg-day.
